Consider 2 compounds from paper PMC6289163 (Tuberculosis (Edinburgh, Scotland), 2018).

The subject of this test is clinical MDR isolate (TB4001). In kind it is cell-based, Mycobacterium tuberculosis.

In the case of `NNC(=O)c1ccncc1` [Isoniazid], the “resistance of TB4001” value was “resistant”. Then `CO[C@H]1/C=C/O[C@@]2(C)Oc3c(C)c(O)c4c(O)c(c(/C=N/N5CCN(C)CC5)c(O)c4c3C2=O)NC(=O)/C(C)=C\C=C\[C@H](C)[C@H](O)[C@@H](C)[C@@H](O)[C@@H](C)[C@H](OC(C)=O)[C@@H]1C` [Rifampicin], with “resistant”.
